According to patent EP4653431A1, “PYRAZOLE DERIVATIVE, AND PHARMACEUTICALLY ACCEPTABLE SALT, STEREOISOMER, PHARMACEUTICAL COMPOSITION AND USE THEREOF” (Starg (Wuhan) Pharmaceutical Technology Co., Ltd, priority 2023, dated 2024):
Where a name gives a salt, the structure may show the parent alone.

Tests used:
T-47D cells = experiment: In vitro T-47D cell viability assay (CellTiter-Glo); format: cell-based; conditions: Homo sapiens, T47D, 168 h, 7 days incubation
Procedure: 1640 medium, fetal bovine serum, and penicillin/streptomycin antibiotics were purchased from Wisent. CellTiter-Glo (cell viability chemiluminescence assay reagent) was purchased from Promega. The T-47D cell line was purchased from Nanjing Cobioer Biosciences Co., Ltd. Envision multimode plate reader (PerkinElmer) was used.
T-47D cells were seeded into a white 384-well plate, with 40 µL of cell suspension containing 300 T-47D cells per well. The cell plate was incubated overnight in a CO2 incubator.
The test compound was serially diluted 5-fold using a multichannel pipette to the 8th concentration, i.e., from 2000 µM to […]. The experiment was set up with duplicate wells. 78 µL of culture medium was added to an intermediate plate, and 2 µL per well of the gradient-diluted compound was transferred to the corresponding position in the intermediate plate. After mixing, 10 µL per well of the mixture was transferred to the cell plate. The concentration range of the compound transferred to the cell plate was from 10 µM to 0.026 nM. The cell plate was incubated in a CO2 incubator for 7 days. Another cell plate was prepared, and the signal value was read on the day of compound addition to serve as the maximum value (Max in the equation below) for data analysis. 10 µL per well of CellTiter-Glo reagent was added to the cell plate, and the cell plate was incubated at room temperature for 10 minutes to stabilize the luminescence signal. The signal was read using the Envision multimode plate reader.
10 µL per well of CellTiter-Glo reagent was added to the cell plate, and the cell plate was incubated at room temperature for 10 minutes to stabilize the luminescence signal. The signal was read using the Envision multimode plate reader.
The raw data were converted to inhibition rates using the equation (Sample-Min)/(Max-Min)×100%. The IC50 value was obtained by fitting the data to a four-parameter curve (using log(inhibitor) vs. response -- Variable slope model in GraphPad Prism). Table 1 provides the inhibitory activity of the compounds of the present application against T-47D cell proliferation.

[1] = Pharmacokinetic study, oral and intravenous administration in mice; parameters: species or system ICR mice; conditions: male, ICR, mouse, in vivo
Procedure: This study used ICR male mice as test animals. The plasma concentrations of the test compounds and the reference compound in mice were quantitatively determined at different time points using the LC-MS/MS method following intravenous injection or oral administration to evaluate the pharmacokinetic characteristics of the test compounds in mice.
ICR mice (male, 20-30 g, 6-8 weeks old, Beijing Charles River).
A clear solution of the test compound was administered to ICR mice (fasted overnight or fed) via tail vein injection or oral gavage. For intravenous injection, blood samples (50 µL) were collected via cheek puncture at 0 h (pre-dose) and at 0.083, 0.25, 0.5, 1, 2, 4, 6, 8, and 24 h post-dose into anticoagulant tubes containing sodium heparin. The mixtures were thoroughly vortexed at 4 °C and centrifuged at 6000 rpm for 3 minutes. For oral gavage, blood samples were collected via cheek puncture at 0 h (pre-dose) and at 0.083, 0.25, 1, 2, 4, 6, 8, and 24 h post-dose into anticoagulant tubes containing sodium heparin. The mixtures were vortexed thoroughly, and centrifuged at 6000 rpm for 3 minutes. Plasma drug concentrations were determined using the LC-MS/MS method. Pharmacokinetic parameters were calculated using Phoenix WinNonlin 8.2.0 pharmacokinetic software with a non-compartmental model and linear-logarithmic trapezoidal rule.

[2] = system: Human Ovarian Cancer OVCAR-3 Cell Subcutaneous Xenograft Tumor; experiment: In vivo pharmacodynamic (efficacy) study in OVCAR-3 subcutaneous xenograft tumor model; conditions: oral, BID*21 days, OVCAR-3 xenograft in CB17-SCID mice
Procedure: Cell Culture: OVCAR-3 cells (human ovarian cancer cell line, sourced from Medsyin's cell bank) were cultured in RPMI-1640 medium (ATCC modified, Gibco) supplemented with 20% FBS (Gibco) and 1% penicillin/streptomycin (P.S.), in vitro at 37 °C with 5% CO2. The cells were passaged twice weekly. OVCAR-3 cells in the exponential growth phase were collected and resuspended in a mixture of PBS and Matrigel (Corning) to prepare a cell suspension with a concentration of 5×10^7 cells/mL for mouse inoculation. The volume ratio of PBS to Matrigel was 1:1.
Animals: CB17-SCID mice, female, 6-8 weeks old, weighing 18-21 grams. A total of 40 mice were inoculated. The mice were provided by Shanghai Lingchang Biotechnology Co., Ltd.
Tumor Inoculation: Each mouse was subcutaneously injected in the right flank with 0.2 mL of OVCAR-3 tumor cells (10×10^6 cells).
Experimental Metrics: The experimental metrics aimed to evaluate whether tumor growth was inhibited, delayed, or cured. The tumor diameter was measured twice weekly using a vernier caliper. The tumor volume was calculated using the formula: V=0.5a×b^2, where a and b represent the longest and shortest diameters of the tumor, respectively.
Antitumor metric TGI (%) reflects the tumor growth inhibition rate. TGI (%) was calculated as follows: TGI (%) = [(1 - (average tumor volume at the end of drug administration in a given group - average tumor volume at the start of drug administration in that group)) / (average tumor volume at the end of treatment in a vehicle control group - average tumor volume at the start of treatment in the vehicle control group)] × 100%.

Compound	IC50 (T-47D cells)	bioavailability [1]	AUC(0-t) ([1]; iv, 5 mg/kg)	Vd ([1]; iv, 5 mg/kg)	clearance ([1]; iv, 5 mg/kg)	half-life ([1]; iv, 5 mg/kg)	AUC(0-t) ([1]; po, 30 mg/kg)	Cmax ([1]; po, 30 mg/kg)	Tmax ([1]; po, 30 mg/kg)	TGI ([2]; 35 mg/Kg)	TGI ([2]; 70 mg/Kg)	TGI ([2]; 140 mg/Kg)
CONCc1nn2ccnc(Nc3cc([C@H]4CC[C@@H](OC(=O)NC(C)C)C4)[nH]n3)c2c1F [Compound 5]	193 nM	129%	6770 ng·h/mL	7.58 L/kg	13 mL/min/kg	6.48 h	52600 ng·h/mL	22100 ng/mL	0.19 h	–	–	–
CON(C)Cc1nn2ccnc(Nc3cc([C@H]4CC[C@@H](OC(=O)NC(C)C)C4)[nH]n3)c2c1C [Formate salt of compound 2]	465 nM	–	–	–	–	–	–	–	–	104.1%	114.1%	114.6%
CON(C)Cc1nn2ccnc(Nc3cc([C@H]4CC[C@@H](OC(=O)NC(C)C)C4)[nH]n3)c2c1F [Compound 6]	384 nM	196%	13200 ng·h/mL	0.52 L/kg	6.35 mL/min/kg	0.93 h	155000 ng·h/mL	41100 ng/mL	1.08 h	–	–	–
